This is an account of results in article PMC12426935, “On-Cell Saturation Transfer Difference NMR Spectroscopy on Ion Channels: Characterizing Negative Allosteric Modulator Binding Interactions of P2X7” (Journal of the American Chemical Society, 2025).

Broadly, the IC50 is the concentration that gives 50% inhibition.

Test [1] deals with T1, mouse P2X7 (mP2X7) (Mus musculus, UniProt Q9Z1M0).
T1 construct: expressed in transfected cells
T1 sequence (Q9Z1M0 1-595): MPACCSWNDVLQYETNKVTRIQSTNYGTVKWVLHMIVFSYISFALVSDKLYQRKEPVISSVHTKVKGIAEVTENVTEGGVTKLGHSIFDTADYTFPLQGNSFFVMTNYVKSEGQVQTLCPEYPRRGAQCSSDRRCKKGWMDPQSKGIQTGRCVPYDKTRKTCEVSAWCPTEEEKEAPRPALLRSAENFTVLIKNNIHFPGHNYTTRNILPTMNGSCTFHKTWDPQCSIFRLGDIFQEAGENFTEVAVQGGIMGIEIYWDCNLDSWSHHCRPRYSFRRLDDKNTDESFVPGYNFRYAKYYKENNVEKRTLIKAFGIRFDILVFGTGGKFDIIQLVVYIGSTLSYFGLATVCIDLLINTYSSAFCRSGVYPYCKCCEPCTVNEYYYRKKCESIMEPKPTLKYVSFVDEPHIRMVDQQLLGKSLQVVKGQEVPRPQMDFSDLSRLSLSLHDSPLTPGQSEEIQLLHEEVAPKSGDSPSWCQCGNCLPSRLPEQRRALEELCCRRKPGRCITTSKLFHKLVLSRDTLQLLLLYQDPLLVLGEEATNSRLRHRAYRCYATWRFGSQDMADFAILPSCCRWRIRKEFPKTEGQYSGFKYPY
Briefly: fura-2 intracellular calcium assay on HEK-293 stable cell line expressing mouse P2X7. The class given is cell-based. Conditions: Mouse P2X7 (Table 1); mean in brackets, n = 3. Here is the method: (§1) Genetically edited HEK-293 cells lacking P2Y2 receptors were used to generate stable cell lines expressing human P2X7 (hP2X7), mouse P2X7 (mP2X7), rat P2X7 (rP2X7), or mutants of the hP2X7 NAM site (F88A, M105A, and F103A). Transfection was performed using lipofectamine 2000 (Fisher Scientific), and cells were subjected to Geneticin (800 μg/mL) selection for 2–3 weeks. This was followed by single cell cloning by limiting dilution in 96-well plates. Individual clones were selected for further study based on ATP-induced TO-PRO-3 uptake on a BD Cytoflex flow cytometer. Cell lines were maintained in DMEM:F12 media supplemented with 10% fetal bovine serum (PanBiotech), penicillin and streptomycin (Fisher Scientific) and kept in a humidified incubator with 5% CO2. Stable P2X7-expressing cells were kept under Geneticin selection at a concentration of 400 μg/mL. Passaging was performed twice weekly using 0.25% Trypsin-EDTA (Fisher Scientific).
P2X7 responses were measured by monitoring intracellular calcium responses using fura-2AM loaded cells. Cells were plated at 2–2.5 × 10^4 cells/well the day before experiments in 96-well plates (NUNC) coated with 50 μg/mL poly-D-lysine (Merck Millipore). A loading buffer containing 2 μM fura-2AM (HelloBio) and 250 μM sulfinpyrazone (Merck Millipore) in a low divalent buffer (145 mM NaCl, 5 mM KCl, 0.2 mM CaCl2, 10 mM HEPES, 13 mM glucose, pH 7.3) was added to cells for 45 min at 37 °C. After loading, the buffer was removed and replaced with calcium-containing extracellular solution (145 mM NaCl, 5 mM KCl, 2 mM CaCl2, 10 mM HEPES, 13 mM glucose, pH 7.3). Responses were measured using a Flexstation 3 plate reader (Molecular Devices) with dual excitation wavelengths of 340 and 380 nm and single emission wavelength of 510 nm. The sample interval was 3.5 s, and each well was recorded for 180 s. Fura-2 ratios were calculated in Softmax Pro v5.4; zero baseline was applied, and responses were measured as normalized area under the curve (AUC). […]

In test [2] the target is T2, rat P2X7 (rP2X7) (Rattus norvegicus, UniProt Q64663).
T2 construct: expressed in transfected cells
T2 sequence (Q64663 1-595): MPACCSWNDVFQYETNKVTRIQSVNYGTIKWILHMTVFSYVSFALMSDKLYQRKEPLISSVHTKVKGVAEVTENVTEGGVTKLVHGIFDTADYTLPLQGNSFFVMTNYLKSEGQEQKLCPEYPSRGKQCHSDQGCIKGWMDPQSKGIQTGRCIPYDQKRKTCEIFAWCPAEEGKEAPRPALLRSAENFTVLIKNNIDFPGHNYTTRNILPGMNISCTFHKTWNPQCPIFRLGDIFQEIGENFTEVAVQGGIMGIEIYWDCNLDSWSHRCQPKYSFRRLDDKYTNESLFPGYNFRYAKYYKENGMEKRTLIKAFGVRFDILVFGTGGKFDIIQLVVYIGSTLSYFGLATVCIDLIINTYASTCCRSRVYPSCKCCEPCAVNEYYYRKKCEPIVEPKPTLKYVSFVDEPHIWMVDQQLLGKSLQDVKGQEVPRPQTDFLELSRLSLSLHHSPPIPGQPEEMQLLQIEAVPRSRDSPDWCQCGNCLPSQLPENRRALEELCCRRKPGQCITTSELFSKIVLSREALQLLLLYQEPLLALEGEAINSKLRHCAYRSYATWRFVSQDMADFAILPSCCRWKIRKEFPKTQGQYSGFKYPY
Briefly: fura-2 intracellular calcium assay on HEK-293 stable cell line expressing rat P2X7. The class given is cell-based. The following applies: Rat P2X7 (Table 1), n = 3. Here is the method: as §1
P2X7 responses were measured by monitoring intracellular calcium responses using fura-2AM loaded cells. Cells were plated at 2–2.5 × 10^4 cells/well the day before experiments in 96-well plates (NUNC) coated with 50 μg/mL poly-D-lysine (Merck Millipore). A loading buffer containing 2 μM fura-2AM (HelloBio) and 250 μM sulfinpyrazone (Merck Millipore) in a low divalent buffer (145 mM NaCl, 5 mM KCl, 0.2 mM CaCl2, 10 mM HEPES, 13 mM glucose, pH 7.3) was added to cells for 45 min at 37 °C. After loading, the buffer was removed and replaced with calcium-containing extracellular solution (145 mM NaCl, 5 mM KCl, 2 mM CaCl2, 10 mM HEPES, 13 mM glucose, pH 7.3). Responses were measured using a Flexstation 3 plate reader (Molecular Devices) with dual excitation wavelengths of 340 and 380 nm and single emission wavelength of 510 nm. The sample interval was 3.5 s, and each well was recorded for 180 s. Fura-2 ratios were calculated in Softmax Pro v5.4; zero baseline was applied, and responses were measured as normalized area under the curve (AUC). Dose inhibition curves were plotted using GraphPad Prism v6 nonlinear regression (three parameter fit) and log IC50 values reported.
(In general: Calcium flux is commonly read through the fluorescence of an indicator in the cells.)

Each structure is given as a SMILES string. Where two headings read alike, the source gives them in different places.

Consider `O=C(CC12CC3CC(CC(C3)C1)C2)Nc1cccc2nc(NCCNCCO)ccc12` [AZ10606120], for which the IC50 in test [1] was 524 nM; in test [2] (log IC50 ± standard error, read-out: Log IC50 (converted)) it was 52.5 nM; in test [2] (mean in brackets, read-out: mean IC50), 53.1 nM.
